Source: patent publication US20090131317A1, “COMPOUNDS AND PEPTIDES THAT BIND THE TRAIL RECEPTOR” (AFFYMAX, INC., priority 2007, published 2009)
“And” between values parts separate entries of the source, which are not always exact repeats. Identical values can stand only once. Like-named read-outs stand apart in the source and are kept apart here. Numbered stars: 1 amine (or outer) side, 2 acyl side, 3 side chain; on linkers, the order of the positions; unused ones are H or OH. Bridge positions count the residues as written; N and C are the ends. Peptide text beside a SMILES is read from it. I, II: the chains in the order shown. Diglycolyl = O=C(COCC(=O)[*:2])[*:1]

Legend:
human TRAIL R2 = biological target: T1, human TRAIL R2 (Homo sapiens, UniProt O14763); assay: AlphaQuest TRAIL R2 receptor binding competition assay (AlphaScreen, biotinylated TRAIL ligand vs TRAIL R2-Fc); conditions: competition with biotinylated TRAIL ligand
T1 construct: purchased R&D Systems, Minneapolis, Minn
Excerpt: Laser excitation (680 nm) of a photosensitizer in the donor bead generates singlet state oxygen molecules, which react with a chemiluminescer in the acceptor bead to generate a detectable light signal (520-620 nm). Because the singlet O2 molecules have an extremely short half-life (i.e., t ½), a signal is generated only when the donor and acceptor beads are brought into close proximity, by TRAIL binding to the R2 receptor. The presence of unlabeled test peptide that competes with TRAIL for binding to the R2 receptor will prevent this binding, resulting in a measurable decrease in light emission.
Recombinant human TRAIL R2-Fc fusion protein (R&D Systems, Minneapolis, Minn.) is diluted in AlphaQuest® buffer to a concentration of 600 pM, pre-mixed with 1.9 μL Protein A-coated acceptor beads and 1.9 μL streptavidin-coated donor beads (Perkin-Elmer®, Waltham, Mass.), then 2 μL is added to each well of the assay plate. […] The plates are sealed with adhesive sealing film and covered with aluminum foil, centrifuged at 600 rpm for 30 seconds and incubated overnight in the dark. […] The raw data are analyzed using GraphPad Prism® software (La Jolla, Calif.) to calculate IC50 values from a 4-parameter logistic equation.

HCT-116 cells = format: cell-based
Method: The apoptotic activity of test peptides is measured using an HCT-116 proliferation assay. The HCT-116 assay is used to measure the activity of TRAIL R2 agonist peptides using the colon carcinoma cell line HCT-116 (ATCC, Manassas, Va.).
In more detail, a peptide homotrimer based on the peptide monomer sequence of SEQ ID NO: 19 (See, FIG. 8B) is tested for functional activity using the HCT-116 proliferation assay. HCT-116 cells are incubated for one to two days in the presence of serially diluted peptide dimers or peptide trimers. […]
Cell viability is measured using an MTT colorimetric viability assay, a colorimetric assay that analyzes the number of viable cells by measuring the ability of mitochondrial dehydrogenase enzyme in the viable cells to cleave tetrazolium salts added to the culture medium [See, Mosmann (1983) J. Immunol. […] Using this assay, cell proliferation is assessed after 24-48 hours by adding 10 μL of MTT stock solution (ATCC, Manassas, Va.) to the wells. […] After incubation overnight in a 37° C., 5% CO2 incubator, the plates are quantified by reading the optical density at 595 nm (OD595) in a SpectraMax M5 microplate reader (Molecular Devices, Sunnyvale, Calif.). The data are analyzed using GraphPad® Prism software (La Jolla, Calif.) to calculate IC50 values from a 4-parameter logistic equation.

Jurkat cells = format: cell-based
Method: The apoptotic activity of test peptides is measured using a Jurkat proliferation assay.
Jurkat cells are obtained from the American Type Culture Collection (ATCC, Manassas, Va.) and are maintained in RPMI-1640 medium supplemented with 10% FBS, 100 U/mL penicillin, and 100 […] (Growth Medium). […] Cells are resuspended at a density of 1×10^6 cells/mL in Growth Medium, and 50 μl cells is added to each well of the assay plates. The plates are incubated in a 37° C., 5% CO2 incubator for 24-48 hours. Proliferation is assessed by adding 10 μL of MTT stock solution (ATCC, Manassas, Va.) to the wells. The plates are incubated in a 37° C., 5% CO2 incubator for another 2-4 hours, followed by the addition of 100 μL of 20% SDS with 0.01 N HCl. After incubation overnight in a 37° C., 5% CO2 incubator, the plates are quantified by reading the optical density at a wavelength of 595 nm (OD595) in a SpectraMax® M5 microplate reader (Molecular Devices, Sunnyvale, Calif.). The data are analyzed using GraphPad Prism® software (La Jolla, Calif.) to calculate IC50 values from a 4-parameter logistic equation.

[1] = Apoptotic (functional) activity of peptides of FIG. 5, assay not named; format: cell-based; conditions: FIG. 5, role of the C-terminal leucine

IC50 (human TRAIL R2; single values and ranges over assays, read-out: binding activity (IC50)) | EC50 (HCT-116 cells) [µM] | EC50 (Jurkat cells) [µM] | IC50 (human TRAIL R2; single exemplary values and ranges over assays, read-out: binding affinity / binding activity (IC50)) | Compound | apoptotic activity (observed or not) [1]
~7 µM and 1 to 56 µM | ~1.62 | 0.945 to 7 |  | CC[C@H](C)[C@@H]1NC(=O)[C@H](CCCNC(=N)N)NC(=O)[C@H](CC(N)=O)NC(=O)[C@H](CC(=O)O)NC(=O)[C@H](CC(C)C)NC(=O)[C@@H](NC(=O)[C@H](CC(=O)O)NC(=O)[C@H](Cc2c[nH]c3ccccc23)NC(C)=O)CSSC[C@@H](C(=O)N[C@H](C(=O)N[C@@H](CCCCNC(=O)COCC(=O)NCCCC[C@H](NC(=O)[C@@H](NC(=O)[C@@H]2CSSC[C@H](NC(=O)[C@H](CC(=O)O)NC(=O)[C@H](Cc3c[nH]c4ccccc34)NC(C)=O)C(=O)N[C@@H](CC(C)C)C(=O)N[C@@H](CC(=O)O)C(=O)N[C@@H](CC(N)=O)C(=O)N[C@@H](CCCNC(=N)N)C(=O)N[C@@H]([C@@H](C)CC)C(=O)NCC(=O)N[C@@H](CCCNC(=N)N)C(=O)N[C@@H](CCCNC(=N)N)C(=O)N[C@@H](CCC(N)=O)C(=O)N2)C(C)C)C(=O)N[C@@H](CC(C)C)C(N)=O)C(=O)N[C@@H](CC(C)C)C(N)=O)C(C)C)NC(=O)[C@H](CCC(N)=O)NC(=O)[C@H](CCCNC(=N)N)NC(=O)[C@H](CCCNC(=N)N)NC(=O)CNC1=O [SEQ ID NO: 19 homodimer] (I: Ac-WDCLDNRIGRRQCVKL-NH2 / II: Ac-WDCLDNRIGRRQCVKL-NH2; disulfide I:3-I:13, II:3-II:13; linker I:15-II:15 via Diglycolyl) | 
 |  |  | ~0.049 µM and 0.015 to 0.104 µM and 0.001 to 0.056 µM | CC[C@H](C)[C@@H]1NC(=O)[C@H](CCCNC(=N)N)NC(=O)[C@H](CC(N)=O)NC(=O)[C@H](CC(=O)O)NC(=O)[C@H](CC(C)C)NC(=O)[C@@H](NC(=O)[C@H](CC(=O)O)NC(=O)[C@H](Cc2c[nH]c3ccccc23)NC(C)=O)CSSC[C@@H](C(=O)N[C@H](C(=O)N[C@@H](CCCCN)C(=O)N[C@@H](CC(C)C)C(N)=O)C(C)C)NC(=O)[C@H](CCC(N)=O)NC(=O)[C@H](CCCNC(=N)N)NC(=O)[C@H](CCCNC(=N)N)NC(=O)CNC1=O [SEQ ID NO: 19 monomer] (Ac-WDCLDNRIGRRQCVKL-NH2; disulfide 3-13) | exhibits apoptotic activity
 |  |  |  | CC[C@H](C)[C@@H]1NC(=O)[C@H](CCCNC(=N)N)NC(=O)[C@H](CC(N)=O)NC(=O)[C@H](CC(=O)O)NC(=O)[C@H](CC(C)C)NC(=O)[C@@H](NC(=O)[C@H](CC(=O)O)NC(=O)[C@H](Cc2c[nH]c3ccccc23)NC(C)=O)CSSC[C@@H](C(=O)N[C@H](C(=O)N[C@@H](CCCCN)C(N)=O)C(C)C)NC(=O)[C@H](CCC(N)=O)NC(=O)[C@H](CCCNC(=N)N)NC(=O)[C@H](CCCNC(=N)N)NC(=O)CNC1=O [SEQ ID NO: 28 monomer] (Ac-WDCLDNRIGRRQCVK-NH2; disulfide 3-13) | no apoptotic activity is observed
